Laboratory results reported in ChEMBL document CHEMBL2439971, “Design, synthesis and antiproliferative evaluation of fluorenone analogs with DNA topoisomerase I inhibitory properties” (Bioorg Med Chem, 2013).
Calls of active or inactive are those of the source. No cut-off for these calls is given here.

Experiments:
DU-145 = test: Cytotoxicity against human DU145 cells at 10 uM after 48 hrs by sulforhodamine B assay relative to control; format: functional
NCI/ADR-RES = test: Cytotoxicity against human NCI/ADR-RES cells after 48 hrs by sulforhodamine B assay; format: functional
K562 = test: Cytotoxicity against human K562 cells at 10 uM after 48 hrs by sulforhodamine B assay relative to control; format: functional
HT-29 = test: Cytotoxicity against human HT-29 cells at 10 uM after 48 hrs by sulforhodamine B assay relative to control; format: functional
BT-549 [1] = test: Cytotoxicity against human BT549 cells after 48 hrs by sulforhodamine B assay; format: functional; settings: BT-549, 48 h
RPMI-8226 = test: Cytotoxicity against human RPMI8226 cells at 10 uM after 48 hrs by sulforhodamine B assay relative to control; format: functional
Homo sapiens = organism: Homo sapiens; test: Inhibition of telomerase (unknown origin) at 10 uM TRAP assay
M14 = test: Cytotoxicity against human M14 cells after 48 hrs by sulforhodamine B assay; format: functional; settings: M14, 48 h
NCI-H226 [2] = test: Cytotoxicity against human NCI-H226 cells after 48 hrs by sulforhodamine B assay; format: functional; settings: NCI-H226, 48 h
HOP-62 = test: Cytotoxicity against human HOP62 cells after 48 hrs by sulforhodamine B assay; format: functional; settings: HOP-62, 48 h
Malme-3M = test: Cytotoxicity against human MALME-3M cells at 10 uM after 48 hrs by sulforhodamine B assay relative to control; format: functional
UO-31 [3] = test: Cytotoxicity against human UO31 cells after 48 hrs by sulforhodamine B assay; format: functional; settings: UO-31, 48 h
ACHN = test: Cytotoxicity against human ACHN cells at 10 uM after 48 hrs by sulforhodamine B assay relative to control; format: functional
SK-MEL-28 = test: Cytotoxicity against human SK-MEL-28 cells after 48 hrs by sulforhodamine B assay; format: functional; settings: SK-MEL-28, 48 h
MOLT-4 [4] = test: Cytotoxicity against human MOLT4 cells after 48 hrs by sulforhodamine B assay; format: functional; settings: MOLT-4, 48 h
PC-3 = test: Cytotoxicity against human PC3 cells after 48 hrs by sulforhodamine B assay; format: functional, cell-based; settings: PC-3, 48 h
UACC-62 = test: Cytotoxicity against human UACC62 cells after 48 hrs by sulforhodamine B assay; format: functional; settings: UACC-62, 48 h
OVCAR-3 [5] = test: Cytotoxicity against human OVCAR3 cells at 10 uM after 48 hrs by sulforhodamine B assay relative to control; format: functional
IGROV-1 = test: Cytotoxicity against human IGROV1 cells at 10 uM after 48 hrs by sulforhodamine B assay relative to control; format: functional
UO-31 [6] = test: Cytotoxicity against human UO31 cells at 10 uM after 48 hrs by sulforhodamine B assay relative to control; format: functional
SF-539 = test: Cytotoxicity against human SF539 cells after 48 hrs by sulforhodamine B assay; format: functional; settings: SF-539, 48 h
UACC-257 = test: Cytotoxicity against human UACC257 cells at 10 uM after 48 hrs by sulforhodamine B assay relative to control; format: functional
T47D [7] = test: Cytotoxicity against human T47D cells at 10 uM after 48 hrs by sulforhodamine B assay relative to control; format: functional
SNB-75 = test: Cytotoxicity against human SNB75 cells at 10 uM after 48 hrs by sulforhodamine B assay relative to control; format: functional
[8] = Cytotoxicity against human Hs 578T cells at 10 uM after 48 hrs by sulforhodamine B assay relative to control; format: functional
T47D [9] = test: Cytotoxicity against human T47D cells after 48 hrs by sulforhodamine B assay; format: functional
OVCAR-3 [10] = test: Cytotoxicity against human OVCAR3 cells after 48 hrs by sulforhodamine B assay; format: functional; settings: OVCAR-3, 48 h
OVCAR-4 = test: Cytotoxicity against human OVCAR4 cells at 10 uM after 48 hrs by sulforhodamine B assay relative to control; format: functional
NCI-H226 [11] = test: Cytotoxicity against human NCI-H226 cells at 10 uM after 48 hrs by sulforhodamine B assay relative to control; format: functional
CAKI-1 = test: Cytotoxicity against human CAKI-1 cells after 48 hrs by sulforhodamine B assay; format: functional; settings: CAKI-1, 48 h
CCRF-CEM = test: Cytotoxicity against human CCRF-CEM cells after 48 hrs by sulforhodamine B assay; format: functional
NCI-H460 = test: Cytotoxicity against human NCI-H460 cells at 10 uM after 48 hrs by sulforhodamine B assay relative to control; format: functional
SW-620 = test: Cytotoxicity against human SW620 cells after 48 hrs by sulforhodamine B assay; format: functional; settings: SW-620, 48 h
NCI-H23 = test: Cytotoxicity against human NCI-H23 cells after 48 hrs by sulforhodamine B assay; format: functional; settings: NCI-H23, 48 h
HCT-116 = test: Cytotoxicity against human HCT116 cells after 48 hrs by sulforhodamine B assay; format: functional; settings: HCT-116, 48 h
SF-295 = test: Cytotoxicity against human SF295 cells after 48 hrs by sulforhodamine B assay; format: functional; settings: SF-295, 48 h
BT-549 [12] = test: Cytotoxicity against human BT549 cells at 10 uM after 48 hrs by sulforhodamine B assay relative to control; format: functional
MOLT-4 [13] = test: Cytotoxicity against human MOLT4 cells at 10 uM after 48 hrs by sulforhodamine B assay relative to control; format: functional
MDA-MB-231 = test: Cytotoxicity against human MDA-MB-231 cells after 48 hrs by sulforhodamine B assay; format: functional; settings: MDA-MB-231, 48 h
[14] = read-out: LC50 (the source's name)

Compound CCCCNCC(=O)Nc1ccc2c(c1)C(=O)c1cc(NC(=O)CNCCCC)ccc1-2 has an Activity (DU-145) of 35.16%, a GI50 (NCI/ADR-RES) of 2.89 µM and a TGI (NCI/ADR-RES) of 10.9 µM. The CC50 (NCI/ADR-RES; [14]) was 41.4 µM, the Activity (K562) was -53.98% and the Activity (HT-29) was -52.59%. The GI50 (BT-549 [1]) was 2.05 µM, the TGI (BT-549 [1]) was 6.05 µM and the CC50 (BT-549 [1]; [14]) was 24.6 µM. The Activity (RPMI-8226) was -37.38%, the inhibition (Homo sapiens) was “inactive” and the GI50 (M14) was 1.6 µM. The TGI (M14) was 3.08 µM, the CC50 (M14; [14]) was 5.94 µM and the GI50 (NCI-H226 [2]) was 10.1 µM. The TGI (NCI-H226 [2]) was 23.3 µM, the CC50 (NCI-H226 [2]; [14]) was 53.6 µM and the GI50 (HOP-62) was 2.07 µM. For the same compound, the TGI (HOP-62) was 6.74 µM, the CC50 (HOP-62; [14]) was 26 µM and the Activity (Malme-3M) was -68.3%. For the same compound, the GI50 (UO-31 [3]) was 2.04 µM, the TGI (UO-31 [3]) was 5.47 µM and the CC50 (UO-31 [3]; [14]) was 25.2 µM. The Activity (ACHN) was 18.19%, the GI50 (SK-MEL-28) was 1.94 µM and the TGI (SK-MEL-28) was 3.46 µM. The CC50 (SK-MEL-28; [14]) was 6.18 µM, the GI50 (MOLT-4 [4]) was 0.56 µM and the TGI (MOLT-4 [4]) was 2.29 µM. For the same compound, the CC50 (MOLT-4 [4]; [14]) was 7.26 µM, the GI50 (PC-3) was 1.72 µM and the IC50 (PC-3) was 3.61 µM. The LC50 (concentration killing 50% of cells) (PC-3) was 13.1 µM, the TGI (PC-3) was 4.34 µM and the GI50 (UACC-62) was 1.61 µM. For the same compound, the TGI (UACC-62) was 3.03 µM, the CC50 (UACC-62; [14]) was 5.69 µM and the Activity (OVCAR-3 [5]) was -51.72%. The Activity (IGROV-1) was 46.91%, the Activity (UO-31 [6]) was -42.01% and the GI50 (SF-539) was 1.76 µM. It also gave a TGI (SF-539) of 3.26 µM, a CC50 (SF-539; [14]) of 6.05 µM and an Activity (UACC-257) of -84.17%. For the same compound, the Activity (T47D [7]) was -26.4%, the Activity (SNB-75) was 36.53% and the Activity [8] was 37.13%. It also gave a GI50 (T47D [9]) of 1.56 µM, a TGI (T47D [9]) of 2.98 µM and a CC50 (T47D [9]; [14]) of 5.71 µM. It also gave a GI50 (OVCAR-3 [10]) of 1.73 µM, a TGI (OVCAR-3 [10]) of 3.23 µM and a CC50 (OVCAR-3 [10]; [14]) of 6.05 µM. For the same compound, the Activity (OVCAR-4) was -29.46%, the Activity (NCI-H226 [11]) was 67.92% and the GI50 (CAKI-1) was 1.79 µM. For the same compound, the TGI (CAKI-1) was 6.45 µM, the CC50 (CAKI-1; [14]) was 26.9 µM and the GI50 (CCRF-CEM) was 1.6 µM. For the same compound, the TGI (CCRF-CEM) was 4.02 µM, the CC50 (CCRF-CEM; [14]) was 10.7 µM and the Activity (NCI-H460) was -27.51%. The GI50 (SW-620) was 1.25 µM, the TGI (SW-620) was 3 µM and the CC50 (SW-620; [14]) was 7.16 µM. The GI50 (NCI-H23) was 2.63 µM, the TGI (NCI-H23) was 10.1 µM and the CC50 (NCI-H23; [14]) was 35.7 µM. For the same compound, the GI50 (HCT-116) was 0.81 µM, the TGI (HCT-116) was 2.18 µM and the CC50 (HCT-116; [14]) was 5.16 µM. For the same compound, the GI50 (SF-295) was 1.67 µM, the TGI (SF-295) was 3.47 µM and the CC50 (SF-295; [14]) was 7.2 µM. It also gave an Activity (BT-549 [12]) of 69.3%, an Activity (MOLT-4 [13]) of -42.18% and a GI50 (MDA-MB-231) of 1.39 µM. It also gave a TGI (MDA-MB-231) of 2.9 µM and a CC50 (MDA-MB-231; [14]) of 6.02 µM.
